Measurements as given in BigSolDB 2.1.

O=C(O)/C=C/C(=O)O.OCCOCCN1CCN(C2=Nc3ccccc3Sc3ccccc32)CC1.OCCOCCN1CCN(C2=Nc3ccccc3Sc3ccccc32)CC1
solubility (mole fraction)
Conditions	283.15 K	288.15 K	293.15 K	298.15 K	303.15 K	308.15 K	313.15 K	318.15 K	323.15 K
in 2-butanone	0.000134	0.000164	0.000204	0.000251	0.000309	0.000382	0.000462	0.000581	0.000721
in MIBK	0.000128	0.000153	0.000181	0.000224	0.000273	0.000328	0.000398	0.000475	0.000571
in MTBE	4.36e-05	5.55e-05	6.74e-05	8.27e-05	0.000107	0.00013	0.000161	0.000192	0.000241
in THF	0.000705	0.000873	0.00108	0.00133	0.00167	0.00208	0.00261	0.00323	0.00409
in dichloromethane	0.000174	0.000213	0.000279	0.000365	0.00046	0.000597	0.000775	–	–
in ethyl formate	8.6e-05	0.000105	0.000125	0.000158	0.000197	0.00024	0.000291	0.000362	0.000445
in isopropyl acetate	3.95e-05	4.7e-05	5.77e-05	6.96e-05	8.3e-05	0.000104	0.000127	0.000158	0.000191
in n-heptane	1.59e-05	1.94e-05	2.44e-05	3.02e-05	3.61e-05	4.57e-05	–	6.96e-05	–
in n-hexane	1.46e-05	1.77e-05	2.17e-05	2.75e-05	3.3e-05	4.17e-05	5.15e-05	6.53e-05	8.16e-05
in n-propanol	0.000244	0.000317	0.000396	0.000497	0.000614	0.000797	0.00101	0.00126	0.0016
in toluene	3.01e-05	3.49e-05	4.19e-05	4.98e-05	5.82e-05	7.09e-05	8.5e-05	0.000102	0.000121
